In PubChem BioAssay AID256 (DTP/NCI, 2004):
Values joined by “and” are separate entries in the source; they are usually repeats but may differ in a detail not shown here. Equal values may be shown once. Toxic doses and inconclusive results are not listed. How the source made its calls: active means survival T/C of 150% or more; inactive means T/C below 125% in these data.

Test system: CD2F1 mice, L1210 leukemia ip, survival T/C
Assay: NCI In Vivo Anticancer Drug Screen. Data for tumor model L1210 Leukemia (intraperitoneal) in CD2F1 (CDF1) mice
Details: higher = longer survival
Summary of the method: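 Activity against a transplanted murine tumor was judged by comparing the compound group with a vehicle group. The outcome in the treated animals was divided by that in the controls.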

[1] = endpoint: mean survival time, dose: 50.0 mg/kg/injection, schedule: Q01DX009 (ip), vehicle: saline with Tween-80
[2] = endpoint: mean survival time, dose: 100.0 mg/kg/injection, schedule: Q01DX001 (ip), vehicle: saline with Tween-80
[3] = endpoint: mean survival time, dose: 100.0 mg/kg/injection, schedule: Q01DX009 (ip), vehicle: saline with Tween-80
[4] = endpoint: mean survival time, dose: 100.0 mg/kg/injection, schedule: Q04DX003 (ip), vehicle: saline with Tween-80
[5] = endpoint: mean survival time, dose: 200.0 mg/kg/injection, schedule: Q01DX001 (ip), vehicle: saline with Tween-80
[6] = endpoint: mean survival time, dose: 200.0 mg/kg/injection, schedule: Q01DX009 (ip), vehicle: saline with Tween-80
[7] = endpoint: mean survival time, dose: 12.5 mg/kg/injection, schedule: Q01DX009 (ip), vehicle: saline
[8] = endpoint: mean survival time, dose: 25.0 mg/kg/injection, schedule: Q01DX009 (ip), vehicle: saline
[9] = endpoint: mean survival time, dose: 100.0 mg/kg/injection, schedule: Q04DX003 (ip), vehicle: saline
[10] = endpoint: mean survival time, dose: 200.0 mg/kg/injection, schedule: Q04DX003 (ip), vehicle: saline
[11] = endpoint: mean survival time, dose: 400.0 mg/kg/injection, schedule: Q04DX003 (ip), vehicle: saline
[12] = endpoint: mean survival time, dose: 200.0 mg/kg/injection, schedule: Q04DX003 (ip), vehicle: saline with Tween-80
[13] = endpoint: mean survival time, dose: 400.0 mg/kg/injection, schedule: Q04DX003 (ip), vehicle: saline with Tween-80
[14] = endpoint: mean survival time, dose: 12.5 mg/kg/injection, schedule: Q04DX002 (ip), vehicle: saline with Tween-80
[15] = endpoint: mean survival time, dose: 25.0 mg/kg/injection, schedule: Q04DX002 (ip), vehicle: saline with Tween-80

Measured: T/C

C=CC1CN2CCC1CC2C(O)c1ccnc2ccccc12 (stereo not drawn) (tested in a mixture with another compound)
inactive: endpoint: mean survival time, dose: 25.0 mg/kg/injection, schedule: Q04DX003 (ip), vehicle: saline with Tween-80 100 % of control | endpoint: mean survival time, dose: 50.0 mg/kg/injection, schedule: Q01DX001 (ip), vehicle: saline with Tween-80 100 % of control | [1] 96 % of control | endpoint: mean survival time, dose: 50.0 mg/kg/injection, schedule: Q04DX003 (ip), vehicle: saline with Tween-80 98 % of control | [2] 96 % of control and 92 % of control | [3] 98 % of control | [4] 93 % of control and 100 % of control | [5] 104 % of control and 92 % of control | [6] 90 % of control

O=N[O-].[Co].[NH2-].[NH2-].[NH2-].[NH2-].[NH2-]
inactive: [7] 103 % of control | endpoint: mean survival time, dose: 25.0 mg/kg/injection, schedule: Q01DX003 (ip), vehicle: saline 93 % of control | [8] 103 % of control | endpoint: mean survival time, dose: 50.0 mg/kg/injection, schedule: Q01DX003 (ip), vehicle: saline 100 % of control | endpoint: mean survival time, dose: 50.0 mg/kg/injection, schedule: Q01DX009 (ip), vehicle: saline 105 % of control

COc1ccc(-c2nc(C)cc3cc(OC)c(OC)cc23)cc1OC
inactive: endpoint: mean survival time, dose: 12.5 mg/kg/injection, schedule: Q01DX009 (ip), vehicle: water 94 % of control | endpoint: mean survival time, dose: 25.0 mg/kg/injection, schedule: Q01DX009 (ip), vehicle: water 94 % of control | endpoint: mean survival time, dose: 50.0 mg/kg/injection, schedule: Q01DX009 (ip), vehicle: water 91 % of control | endpoint: mean survival time, dose: 100.0 mg/kg/injection, schedule: Q01DX009 (ip), vehicle: water 89 % of control

Oc1c(Cl)cc(Cl)cc1CN(Cc1cc(Cl)cc(Cl)c1O)c1ccccc1
inactive: endpoint: mean survival time, dose: 12.5 mg/kg/injection, schedule: Q01DX009 (ip), vehicle: Klucel (hydroxypropylcellulose) (HPC) 103 % of control | endpoint: mean survival time, dose: 25.0 mg/kg/injection, schedule: Q01DX009 (ip), vehicle: Klucel (hydroxypropylcellulose) (HPC) 102 % of control | endpoint: mean survival time, dose: 50.0 mg/kg/injection, schedule: Q01DX009 (ip), vehicle: Klucel (hydroxypropylcellulose) (HPC) 101 % of control | endpoint: mean survival time, dose: 100.0 mg/kg/injection, schedule: Q01DX009 (ip), vehicle: Klucel (hydroxypropylcellulose) (HPC) 100 % of control | endpoint: mean survival time, dose: 200.0 mg/kg/injection, schedule: Q01DX009 (ip), vehicle: Klucel (hydroxypropylcellulose) (HPC) 100 % of control | endpoint: mean survival time, dose: 400.0 mg/kg/injection, schedule: Q01DX009 (ip), vehicle: Klucel (hydroxypropylcellulose) (HPC) 94 % of control

Cc1ccccc1N1OS(=O)(=O)CC1(C#N)c1ccccc1 (stereo not drawn)
inactive: endpoint: mean survival time, dose: 100.0 mg/kg/injection, schedule: Q01DX001 (ip), vehicle: saline 106 % of control | [9] 98 % of control | endpoint: mean survival time, dose: 200.0 mg/kg/injection, schedule: Q01DX001 (ip), vehicle: saline 100 % of control | [10] 101 % of control | endpoint: mean survival time, dose: 400.0 mg/kg/injection, schedule: Q01DX001 (ip), vehicle: saline 102 % of control | [11] 96 % of control

CCCC[S+](CCCC)CC(=O)c1ccc(-c2ccccc2)cc1
inactive: endpoint: mean survival time, dose: 0.19 mg/kg/injection, schedule: Q01DX009 (ip), vehicle: saline with Tween-80 97 % of control | endpoint: mean survival time, dose: 0.39 mg/kg/injection, schedule: Q01DX009 (ip), vehicle: saline with Tween-80 101 % of control | endpoint: mean survival time, dose: 0.76 mg/kg/injection, schedule: Q01DX009 (ip), vehicle: saline with Tween-80 98 % of control | endpoint: mean survival time, dose: 1.56 mg/kg/injection, schedule: Q01DX009 (ip), vehicle: saline with Tween-80 97 % of control | endpoint: mean survival time, dose: 1.56 mg/kg/injection, schedule: Q01DX009 (ip), vehicle: saline 86 % of control | endpoint: mean survival time, dose: 3.12 mg/kg/injection, schedule: Q01DX009 (ip), vehicle: saline with Tween-80 98 % of control | endpoint: mean survival time, dose: 3.13 mg/kg/injection, schedule: Q01DX009 (ip), vehicle: saline 87 % of control | [7] 87 % of control | [8] 87 % of control

CCOC1([N+](=O)[O-])c2ccccc2-c2nc3ccccc3cc21 (stereo not drawn)
inactive: endpoint: mean survival time, dose: 200.0 mg/kg/injection, schedule: Q04DX003 (ip), vehicle: Klucel (hydroxypropylcellulose) (HPC) 97 % of control

Clc1cc2ccccc2c(Cl)n1
inactive: [2] 92 % of control | [5] 89 % of control

C=C1CC2CCC1C2 (stereo not drawn)
inactive: [3] 96 % of control | [4] 104 % of control | [12] 98 % of control | [13] 98 % of control

O=C(CC(=O)C(F)(F)C(F)(F)C(F)(F)F)C(F)(F)F.O=C(CC(=O)C(F)(F)C(F)(F)C(F)(F)F)C(F)(F)F.[Cu]
inactive: endpoint: mean survival time, dose: 3.13 mg/kg/injection, schedule: Q04DX002 (ip), vehicle: saline with Tween-80 90 % of control | endpoint: mean survival time, dose: 6.25 mg/kg/injection, schedule: Q04DX002 (ip), vehicle: saline with Tween-80 87 % of control | [14] 102 % of control | [15] 98 % of control | endpoint: median survival time, dose: 25.0 mg/kg/injection, schedule: Q04DX002 (ip), vehicle: saline with Tween-80 111 % of control

COC1CC(C)OC(OC2C(C)/C=C/C(=O)OC(C)C(COC3OC(C)C(O)C(OC)C3OC)C3OC3/C=C/C(=O)C(C)(O)CC2C)C1O (stereo not drawn)
inactive: endpoint: mean survival time, dose: 125.0 mg/kg/injection, schedule: Q01DX001 (ip), vehicle: saline sonified 100 % of control | endpoint: mean survival time, dose: 250.0 mg/kg/injection, schedule: Q01DX001 (ip), vehicle: saline sonified 101 % of control | endpoint: mean survival time, dose: 500.0 mg/kg/injection, schedule: Q01DX001 (ip), vehicle: saline sonified 95 % of control

COC1OC2COCOC2C(OS(=O)(=O)c2ccc(C)cc2)C1OS(=O)(=O)c1ccc(C)cc1 (stereo not drawn)
inactive: [1] 103 % of control | [3] 97 % of control | [6] 97 % of control

C1CCC(C2CCCC[N-]2)[N-]C1.[Cl][Pt].[NH-]C(CC(N)=O)C(=O)O (stereo not drawn)
inactive: endpoint: median survival time, dose: 10.0 mg/kg/injection, schedule: Q04DX003 (ip), vehicle: saline 101 % of control | endpoint: median survival time, dose: 20.0 mg/kg/injection, schedule: Q04DX003 (ip), vehicle: saline 93 % of control | endpoint: median survival time, dose: 40.0 mg/kg/injection, schedule: Q04DX003 (ip), vehicle: saline 98 % of control | endpoint: median survival time, dose: 80.0 mg/kg/injection, schedule: Q04DX003 (ip), vehicle: saline 91 % of control and 104 % of control | endpoint: median survival time, dose: 160.0 mg/kg/injection, schedule: Q04DX003 (ip), vehicle: saline 95 % of control | endpoint: median survival time, dose: 320.0 mg/kg/injection, schedule: Q04DX003 (ip), vehicle: saline 86 % of control

O=C1NC(=O)C2C3C=CC(C3)C12 (stereo not drawn)
inactive: [14] 93 % of control | [15] 93 % of control | endpoint: mean survival time, dose: 50.0 mg/kg/injection, schedule: Q04DX002 (ip), vehicle: saline with Tween-80 97 % of control | endpoint: mean survival time, dose: 100.0 mg/kg/injection, schedule: Q01DX009 (ip), vehicle: saline sonified 96 % of control | [4] 94 % of control | endpoint: mean survival time, dose: 200.0 mg/kg/injection, schedule: Q01DX009 (ip), vehicle: saline sonified 96 % of control | [12] 101 % of control | endpoint: mean survival time, dose: 400.0 mg/kg/injection, schedule: Q01DX009 (ip), vehicle: saline sonified 98 % of control | [13] 100 % of control

c1ccc(CC2=NCCO2)cc1
inactive: [9] 100 % of control | [10] 95 % of control | [11] 98 % of control

Cc1cccnc1NC1=NCCO1
inactive: [4] 101 % of control | [12] 98 % of control | [13] 98 % of control
